Experimental data published in ChEMBL document CHEMBL4002628, “Benzenesulphonamide inhibitors of the cytolytic protein perforin” (Bioorg Med Chem Lett, 2017).
Calls of active or inactive are those of the source. No cut-off for these calls is given here.

Key:
[1] = Inhibition of N-terminal His-tagged recombinant human p85alpha expressed in baculovirus infected insect Sf21 cells/recombinant wild type mouse p110alpha using phosphatidylinositol as substrate in presence of [33P]-ATP
[2] = biological target: T1, Perforin-1 (Homo sapiens) (UniProt P14222); test: Inhibition of recombinant perforin (unknown origin) assessed as decrease in lysis of 51Cr-labelled human Jurkat cells by measuring 51Cr release at 20 uM preincubated for 30 mins followed by cell line addition measured after 4 hrs in presence of 10% mouse serum by gamma counting method relative to control
T1 sequence (whole entry): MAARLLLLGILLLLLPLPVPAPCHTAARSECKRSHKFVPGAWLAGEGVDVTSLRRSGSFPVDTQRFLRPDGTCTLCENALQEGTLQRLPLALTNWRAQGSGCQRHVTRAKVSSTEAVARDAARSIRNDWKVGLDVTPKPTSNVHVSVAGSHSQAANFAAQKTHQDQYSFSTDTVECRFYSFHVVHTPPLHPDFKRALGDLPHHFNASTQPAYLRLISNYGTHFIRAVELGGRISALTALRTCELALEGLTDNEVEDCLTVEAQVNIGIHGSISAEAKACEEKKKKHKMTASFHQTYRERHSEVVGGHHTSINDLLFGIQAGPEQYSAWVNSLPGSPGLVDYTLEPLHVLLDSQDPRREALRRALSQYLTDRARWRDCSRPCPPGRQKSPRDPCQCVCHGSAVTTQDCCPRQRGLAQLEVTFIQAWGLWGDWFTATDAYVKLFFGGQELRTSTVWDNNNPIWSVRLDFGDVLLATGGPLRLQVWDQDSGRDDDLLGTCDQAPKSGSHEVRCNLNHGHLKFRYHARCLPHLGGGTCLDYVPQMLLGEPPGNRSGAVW

Row | Structure (SMILES) | IC50 [1] [µM] | inhibition [2]
1 | CN1Cc2cc(-c3ccc(-c4cncc(NS(=O)(=O)c5ccc(F)cc5F)c4)s3)ccc2C1=O | > 6.25 | Active
2 | O=C1NCc2ccc(-c3ccc(-c4cncc(NS(=O)(=O)c5ccc(F)cc5F)c4)s3)cc21 | – | Active
3 | O=C1Cc2cc(-c3ccc(-c4cncc(NS(=O)(=O)c5ccc(F)cc5F)c4)s3)ccc2N1 | – | Active
4 | O=C1NCc2cc(-c3ccc(-c4cncc(NS(=O)(=O)c5ccc(F)cc5F)c4)s3)ccc21 | – | Active
